According to PubChem BioAssay AID1963430 (Molecular Pharmacology Branch, DTP, NCI, 2024):
One block for each compound: values may come before it.

System: 521955-158-R2-J5-PDC complex spheroid growth, % test/control
Test: Anticancer human tumor 521955-158-R2-J5-PDC patient-derived pancreatic carcinoma cell line growth inhibition [Asc]
Conditions: for IC50: curve of first compound; for viability, T/C: stronger effect = lower value
In short: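 Complex spheroids combining tumor cells with HUVEC endothelial cells and human MSCs, at 37 degrees C, 5% CO2; agents tested alone or combined, half-log dilutions from at or near clinical Cmax, or 10 microM if Cmax unknown.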
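Note: spheroids exposed to agents for 7 days before readout.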
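Throughout, for viability, T/C: 100% = DMSO vehicle control viability.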

IC50 (second compound 0.01 µM): > 1 µM
IC50 (second compound 0.0316 µM): > 1 µM
IC50 (second compound 0.1 µM): > 1 µM
IC50 (second compound 0.316 µM): > 1 µM
IC50 (second compound 1 µM): > 1 µM
Structure (SMILES): CCN1CCN(Cc2ccc(Nc3ncc(F)c(-c4cc(F)c5nc(C)n(C(C)C)c5c4)n3)nc2)CC1 + CNC(C)C(=O)NC1CN(S(=O)(=O)c2cccc(S(=O)(=O)N3CCC4CCC(C(=O)NC(c5ccccc5)c5ccccc5)N4C(=O)C(NC(=O)C(C)NC)C3)c2)CCC2CCC(C(=O)NC(c3ccccc3)c3ccccc3)N2C1=O
viability, T/C (second compound 0.01 µM, first compound 0.00316 µM): 89.3%
viability, T/C (second compound 0.01 µM, first compound 0.01 µM): 85.6%
viability, T/C (second compound 0.01 µM, first compound 0.0316 µM): 71.2%
viability, T/C (second compound 0.01 µM, first compound 0.1 µM): 61.6%
viability, T/C (second compound 0.01 µM, first compound 0.316 µM): 73.2%
viability, T/C (second compound 0.01 µM, first compound 1 µM): 94.8%
viability, T/C (second compound 0.0316 µM, first compound 0.00316 µM): 87.8%
viability, T/C (second compound 0.0316 µM, first compound 0.01 µM): 106%
viability, T/C (second compound 0.0316 µM, first compound 0.0316 µM): 82.5%
viability, T/C (second compound 0.0316 µM, first compound 0.1 µM): 84.1%
viability, T/C (second compound 0.0316 µM, first compound 0.316 µM): 83.6%
viability, T/C (second compound 0.0316 µM, first compound 1 µM): 102%
viability, T/C (second compound 0.1 µM, first compound 0.00316 µM): 97.6%
viability, T/C (second compound 0.1 µM, first compound 0.01 µM): 91.7%
viability, T/C (second compound 0.1 µM, first compound 0.0316 µM): 76.6%
viability, T/C (second compound 0.1 µM, first compound 0.1 µM): 76.9%
viability, T/C (second compound 0.1 µM, first compound 0.316 µM): 86.7%
viability, T/C (second compound 0.1 µM, first compound 1 µM): 96.8%
viability, T/C (second compound 0.316 µM, first compound 0.00316 µM): 76.3%
viability, T/C (second compound 0.316 µM, first compound 0.01 µM): 76.8%
viability, T/C (second compound 0.316 µM, first compound 0.0316 µM): 83.5%
viability, T/C (second compound 0.316 µM, first compound 0.1 µM): 66.6%
viability, T/C (second compound 0.316 µM, first compound 0.316 µM): 69.7%
viability, T/C (second compound 0.316 µM, first compound 1 µM): 105%
viability, T/C (second compound 1 µM, first compound 0.00316 µM): 95.5%
viability, T/C (second compound 1 µM, first compound 0.01 µM): 85.1%
viability, T/C (second compound 1 µM, first compound 0.0316 µM): 64.8%
viability, T/C (second compound 1 µM, first compound 0.1 µM): 57.7%
viability, T/C (second compound 1 µM, first compound 0.316 µM): 69.9%
viability, T/C (second compound 1 µM, first compound 1 µM): 103%

IC50 (second compound 0.03 µM): 0.00631 µM
IC50 (second compound 0.0949 µM): 0.00284 µM
IC50 (second compound 0.3 µM): 0.00568 µM
IC50 (second compound 0.949 µM): 0.00671 µM
IC50 (second compound 3 µM): 0.0101 µM
Structure (SMILES): NC(=O)C(=Cn1cnc(-c2cc(C(F)(F)F)cc(C(F)(F)F)c2)n1)c1cncnc1 + CCN1C(C(=O)NC23CCC(C(=O)O)(CC2)CC3)C(c2cccc(Cl)c2F)C2(C(=O)Nc3cc(Cl)ccc32)C12CCCCC2
viability, T/C (second compound 0.03 µM, first compound 0.000949 µM): 57.6%
viability, T/C (second compound 0.03 µM, first compound 0.003 µM): 62.8%
viability, T/C (second compound 0.03 µM, first compound 0.00949 µM): 44.4%
viability, T/C (second compound 0.03 µM, first compound 0.03 µM): 34.9%
viability, T/C (second compound 0.03 µM, first compound 0.0949 µM): 30.7%
viability, T/C (second compound 0.03 µM, first compound 0.3 µM): 38.5%
viability, T/C (second compound 0.0949 µM, first compound 0.000949 µM): 103%
viability, T/C (second compound 0.0949 µM, first compound 0.003 µM): 45.5%
viability, T/C (second compound 0.0949 µM, first compound 0.00949 µM): 47.2%
viability, T/C (second compound 0.0949 µM, first compound 0.03 µM): 41.7%
viability, T/C (second compound 0.0949 µM, first compound 0.0949 µM): 33%
viability, T/C (second compound 0.0949 µM, first compound 0.3 µM): 36.2%
viability, T/C (second compound 0.3 µM, first compound 0.000949 µM): 76.5%
viability, T/C (second compound 0.3 µM, first compound 0.003 µM): 51.3%
viability, T/C (second compound 0.3 µM, first compound 0.00949 µM): 50.5%
viability, T/C (second compound 0.3 µM, first compound 0.03 µM): 38.3%
viability, T/C (second compound 0.3 µM, first compound 0.0949 µM): 33.6%
viability, T/C (second compound 0.3 µM, first compound 0.3 µM): 32.8%
viability, T/C (second compound 0.949 µM, first compound 0.000949 µM): 94.2%
viability, T/C (second compound 0.949 µM, first compound 0.003 µM): 58.1%
viability, T/C (second compound 0.949 µM, first compound 0.00949 µM): 47.9%
viability, T/C (second compound 0.949 µM, first compound 0.03 µM): 42%
viability, T/C (second compound 0.949 µM, first compound 0.0949 µM): 35.7%
viability, T/C (second compound 0.949 µM, first compound 0.3 µM): 43.8%
viability, T/C (second compound 3 µM, first compound 0.000949 µM): 109%
viability, T/C (second compound 3 µM, first compound 0.003 µM): 75.6%
viability, T/C (second compound 3 µM, first compound 0.00949 µM): 53.1%
viability, T/C (second compound 3 µM, first compound 0.03 µM): 34.5%
viability, T/C (second compound 3 µM, first compound 0.0949 µM): 49.9%
viability, T/C (second compound 3 µM, first compound 0.3 µM): 45.4%

IC50 (second compound 0.03 µM): > 1 µM
IC50 (second compound 0.0949 µM): > 1 µM
IC50 (second compound 0.3 µM): > 1 µM
IC50 (second compound 0.949 µM): > 1 µM
IC50 (second compound 3 µM): > 1 µM
Structure (SMILES): CCN1CCN(Cc2ccc(Nc3ncc(F)c(-c4cc(F)c5nc(C)n(C(C)C)c5c4)n3)nc2)CC1 + CCN1C(C(=O)NC23CCC(C(=O)O)(CC2)CC3)C(c2cccc(Cl)c2F)C2(C(=O)Nc3cc(Cl)ccc32)C12CCCCC2
viability, T/C (second compound 0.03 µM, first compound 0.00316 µM): 87.5%
viability, T/C (second compound 0.03 µM, first compound 0.01 µM): 88.8%
viability, T/C (second compound 0.03 µM, first compound 0.0316 µM): 57.3%
viability, T/C (second compound 0.03 µM, first compound 0.1 µM): 77.4%
viability, T/C (second compound 0.03 µM, first compound 0.316 µM): 72.4%
viability, T/C (second compound 0.03 µM, first compound 1 µM): 89.4%
viability, T/C (second compound 0.0949 µM, first compound 0.00316 µM): 101%
viability, T/C (second compound 0.0949 µM, first compound 0.01 µM): 79.8%
viability, T/C (second compound 0.0949 µM, first compound 0.0316 µM): 62.8%
viability, T/C (second compound 0.0949 µM, first compound 0.1 µM): 56.3%
viability, T/C (second compound 0.0949 µM, first compound 0.316 µM): 73.2%
viability, T/C (second compound 0.0949 µM, first compound 1 µM): 105%
viability, T/C (second compound 0.3 µM, first compound 0.00316 µM): 106%
viability, T/C (second compound 0.3 µM, first compound 0.01 µM): 99.1%
viability, T/C (second compound 0.3 µM, first compound 0.0316 µM): 65.6%
viability, T/C (second compound 0.3 µM, first compound 0.1 µM): 60.9%
viability, T/C (second compound 0.3 µM, first compound 0.316 µM): 83.8%
viability, T/C (second compound 0.3 µM, first compound 1 µM): 110%
viability, T/C (second compound 0.949 µM, first compound 0.00316 µM): 119%
viability, T/C (second compound 0.949 µM, first compound 0.01 µM): 102%
viability, T/C (second compound 0.949 µM, first compound 0.0316 µM): 107%
viability, T/C (second compound 0.949 µM, first compound 0.1 µM): 79%
viability, T/C (second compound 0.949 µM, first compound 0.316 µM): 92.3%
viability, T/C (second compound 0.949 µM, first compound 1 µM): 98.2%
viability, T/C (second compound 3 µM, first compound 0.00316 µM): 142%
viability, T/C (second compound 3 µM, first compound 0.01 µM): 172%
viability, T/C (second compound 3 µM, first compound 0.0316 µM): 126%
viability, T/C (second compound 3 µM, first compound 0.1 µM): 89.6%
viability, T/C (second compound 3 µM, first compound 0.316 µM): 107%
viability, T/C (second compound 3 µM, first compound 1 µM): 139%
